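Briefly, cells in 96-well plates were exposed to five compound concentrations for 48 h, and endpoints were estimated by linear interpolation. GI50 is the concentration that inhibits growth by half.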 Calls of active or inactive are those of the source. Cut-off read from the data, not from the text of the source: active = GI50 up to about 1.1 µM and inactive = higher.
Assays:
Assay in all cases: inhibition of tumour cell growth, NCI panel, 48 h
A549 = tested on: A549
CCRF-CEM = tested on: CCRF-CEM
EKVX = tested on: EKVX
HL-60 = tested on: HL-60
HOP-62 = tested on: HOP-62
HT-29 = tested on: HT-29
Hs-578T = tested on: Hs-578T
LOX IMVI = tested on: LOX IMVI
MDA-MB-231 = tested on: MDA-MB-231
MDA-N = tested on: MDA-N
MOLT-4 = tested on: MOLT-4
Malme-3M = tested on: Malme-3M
NCI-H460 = tested on: NCI-H460
OVCAR-8 = tested on: OVCAR-8
SF-268 = tested on: SF-268
SN12C = tested on: SN12C
SR = tested on: SR
SW-620 = tested on: SW-620
T47D = tested on: T47D
UO-31 = tested on: UO-31

Measured: GI50

O=C1C=C(Nc2nc(O)cc(C(=O)O)n2)c2ccccc2C1=O
inactive: A549 > 100 µM | CCRF-CEM > 100 µM | EKVX > 100 µM | HL-60 > 100 µM | HOP-62 > 100 µM | HT-29 > 100 µM | Hs-578T > 100 µM | LOX IMVI > 100 µM | MDA-MB-231 > 100 µM | MDA-N > 100 µM | MOLT-4 > 100 µM | Malme-3M > 100 µM | NCI-H460 > 100 µM | OVCAR-8 > 100 µM | SF-268 > 100 µM | SN12C > 100 µM | SR > 100 µM | SW-620 > 100 µM | T47D > 100 µM | UO-31 > 100 µM

CN(CC(=O)O)Cc1c(O)c(Cl)cc(Cl)c1Cl
inactive: A549 53.7 µM | CCRF-CEM 5.13 µM | EKVX 24.2 µM | HL-60 13.9 µM | HOP-62 29 µM | HT-29 33.2 µM | Hs-578T > 100 µM | LOX IMVI 14 µM | MDA-MB-231 45.2 µM | MDA-N 47.2 µM | Malme-3M 27.4 µM | NCI-H460 5.13 µM | OVCAR-8 29.2 µM | SF-268 21.4 µM | SN12C 47 µM | SR 5.55 µM | SW-620 40.5 µM | T47D 54.1 µM | UO-31 23.2 µM

O=C(/C=C/c1ccccc1)c1cc(Br)ccc1O
inactive: A549 24 µM | CCRF-CEM 6.3 µM | EKVX 13.8 µM | HL-60 4.06 µM | HOP-62 20.1 µM | HT-29 16.6 µM | Hs-578T 21.2 µM | LOX IMVI 12.2 µM | MDA-MB-231 18 µM | MDA-N 15 µM | MOLT-4 15.2 µM | NCI-H460 17.9 µM | OVCAR-8 16 µM | SF-268 16.9 µM | SN12C 15.1 µM | SR 2.09 µM | SW-620 21 µM | T47D 8.45 µM | UO-31 10.9 µM

CC(=O)O[C@@H]1[C@H]2[C@@H](OC(=O)c3ccccc3)[C@@H](C)C[C@]2(O)[C@H](OC(C)=O)[C@@]2(C)[C@@H]3CC(C)(C)C(=O)[C@]3(OC(C)=O)C[C@@]12C
inactive: CCRF-CEM 1.92 µM | EKVX > 25 µM | HL-60 1.35 µM | HOP-62 10.9 µM | Hs-578T 9.53 µM | LOX IMVI > 25 µM | MDA-MB-231 > 25 µM | MDA-N 8.91 µM | MOLT-4 2.09 µM | NCI-H460 2.06 µM | OVCAR-8 20.6 µM | SF-268 > 25 µM | SN12C > 25 µM | SR 20.7 µM | SW-620 24.3 µM | T47D > 25 µM | UO-31 13.9 µM

CCOC(=O)CCc1cccc2c1oc1c(CCNC(=O)OCC3c4ccccc4-c4ccccc43)cccc12
inactive: A549 > 100 µM | CCRF-CEM > 100 µM | EKVX > 100 µM | HL-60 > 100 µM | HOP-62 16.2 µM | Hs-578T 4.17 µM | LOX IMVI 75.9 µM | MDA-MB-231 16.2 µM | MDA-N > 100 µM | MOLT-4 > 100 µM | Malme-3M 18.1 µM | NCI-H460 > 100 µM | OVCAR-8 24.9 µM | SF-268 25.2 µM | SN12C > 100 µM | SR 22.5 µM | SW-620 > 100 µM | T47D 22.8 µM | UO-31 34.9 µM

CO/N=C1\CCC2(O)C3Cc4ccc(O)c5c4C2(CCN3CC2CC2)[C@H]1O5 (some centres undefined)
inactive: A549 > 100 µM | CCRF-CEM > 100 µM | EKVX > 100 µM | HL-60 > 100 µM | HOP-62 > 100 µM | HT-29 > 100 µM | Hs-578T > 100 µM | LOX IMVI > 100 µM | MDA-MB-231 > 100 µM | MDA-N > 100 µM | MOLT-4 > 100 µM | Malme-3M > 100 µM | OVCAR-8 > 100 µM | SF-268 > 100 µM | SN12C > 100 µM | SR > 100 µM | SW-620 > 100 µM | T47D > 100 µM | UO-31 > 100 µM

O=C(C(=O)n1ccc2ccccc21)n1ccc2ccccc21
inactive: A549 83.2 µM | CCRF-CEM 38.7 µM | EKVX > 100 µM | HOP-62 99.3 µM | HT-29 > 100 µM | Hs-578T 27.5 µM | LOX IMVI > 100 µM | MDA-MB-231 > 100 µM | MDA-N > 100 µM | MOLT-4 > 100 µM | Malme-3M > 100 µM | NCI-H460 36.6 µM | OVCAR-8 59.7 µM | SF-268 84.7 µM | SN12C > 100 µM | SR 40.1 µM | SW-620 > 100 µM | T47D > 100 µM | UO-31 > 100 µM

COc1ccc2oc(=N)c(C(N)=O)cc2c1
inactive: A549 > 100 µM | CCRF-CEM 33.2 µM | HL-60 22.9 µM | HOP-62 55.2 µM | HT-29 56.4 µM | Hs-578T 18.2 µM | LOX IMVI 37.4 µM | MDA-MB-231 66.8 µM | MDA-N 57.1 µM | MOLT-4 65.9 µM | NCI-H460 39.2 µM | OVCAR-8 > 100 µM | SF-268 44.3 µM | SN12C 74.5 µM | SR 38.5 µM | SW-620 94.8 µM | T47D 32 µM

S=C1CC(c2ccccc2)Sc2ccccc2N1 (centres undefined)
inactive: A549 > 10 µM | CCRF-CEM > 100 µM | EKVX 72.8 µM | HL-60 > 100 µM | HOP-62 22.8 µM | HT-29 > 100 µM | Hs-578T 25.5 µM | LOX IMVI > 100 µM | MDA-MB-231 45.2 µM | MDA-N 54 µM | MOLT-4 5.22 µM | Malme-3M 67.1 µM | NCI-H460 63.1 µM | OVCAR-8 > 100 µM | SF-268 38.8 µM | SN12C 97.7 µM | SR > 100 µM | T47D > 100 µM | UO-31 > 100 µM

COc1cc(C2SCC(=O)N2c2ccc(NC(C)=O)cc2)cc(OC)c1OC (centres undefined)
inactive: A549 > 100 µM | CCRF-CEM 25.9 µM | EKVX > 100 µM | HL-60 > 100 µM | HT-29 90.4 µM | Hs-578T > 100 µM | LOX IMVI > 100 µM | MDA-MB-231 > 100 µM | MDA-N 33.8 µM | MOLT-4 50.9 µM | NCI-H460 > 100 µM | OVCAR-8 77.1 µM | SF-268 > 100 µM | SN12C 81.5 µM | SR 31.2 µM | SW-620 > 100 µM | T47D 16.6 µM | UO-31 > 100 µM

CN(C)CCOc1ccc2[nH]c(C(=O)N3CC(CCl)c4c3cc([N+](=O)[O-])c3ccccc43)cc2c1 (centres undefined)
inactive: CCRF-CEM 1.58 µM | EKVX 3.13 µM | HL-60 3.2 µM | HOP-62 1.88 µM | HT-29 2.15 µM | Hs-578T 3.01 µM | LOX IMVI 2.58 µM | MDA-MB-231 3.23 µM | MDA-N 3.68 µM | MOLT-4 1.29 µM | Malme-3M 1.94 µM | NCI-H460 1.77 µM | OVCAR-8 1.6 µM | SF-268 1.71 µM | SR 1.72 µM | SW-620 2.17 µM | T47D 1.89 µM | UO-31 15.1 µM

From ChEMBL document CHEMBL1201862, “PubChem BioAssay data set” (2004)
